Literature values as cited in patent US20230309840A1, “TARGETING ABNORMAL CELL POPULATIONS FOR APOPTOSIS” (priority 2020, published 2023).

What was measured:
cancer cells = settings: for anti-cancer activity: compared with curcumin
[1] = tested on: prostate cancer (Pica) cell
[2] = tested on: senescent human fibroblasts; settings: at 100 μM
[3] = in vivo
Caenorhabditis elegans = settings: in vivo
Drosophila melanogaster = settings: in vivo
[4] = tested on: airway inflammation and oxidative stress
tumor = settings: tumor-bearing mouse model, vs free cisplatin

Compound: COc1ccc(/C=C/C(=O)CC(=O)/C=C/c2ccc(OC)c(OC)c2)cc1OC [DIMC, dimethoxycurcumin]
- anti-cancer activity (cancer cells): better anti-cancer activities than curcumin

Compound: CC(C)=CCC/C(C)=C/CC/C(C)=C/CC[C@]1(C)CCc2cc(O)c(C)c(C)c2O1 [γ-Tocotrienols]
- inhibition of cell proliferation and invasion [1]: potent and specific inhibitor

Compound: CC[C@H]1OC(=O)[C@H](C)[C@@H](O[C@H]2C[C@@](C)(OC)[C@@H](O)[C@H](C)O2)[C@H](C)[C@@H](O[C@@H]2O[C@H](C)C[C@H](N(C)C)[C@H]2O)[C@](C)(O)C[C@@H](C)CN(C)[C@H](C)[C@@H](O)[C@]1(C)O [Azithromycin]
- effect on control cells (control cells): without affecting control cells
- elimination of senescent cells [2]: selectively eliminated large numbers of senescent cells

Compound: COc1cc(/C=C/C(=O)CC(=O)/C=C/c2ccc(O)c(OC)c2)ccc1O [curcumin, Curcumin]
- bioavailability [3]: poor oral bioavailability
- lifespan and health span (Caenorhabditis elegans): prolong lifespan and extend health span
- solubility in water: low aqueous solubility
- lifespan and health span (Drosophila melanogaster): prolong lifespan and extend health span

Compound: O=C1/C(=C/c2ccccc2F)CNC/C1=C\c1ccccc1F [EF24]
- killing of senescent cells in combination (senescent cells; combined with Navitoclax): synergistically kill senescent cells
- cell viability of senescent cells (senescent cells; variety of senescent cells): selectively decrease the cell viability
- anti-cancer activity (cancer cells): more efficacious against various cancer cells
- potency in inducing cancer cell death (cancer cells; relative to curcumin): 10 fold

Compound: C[C@H]1[C@H](OC(=O)CCC(=O)O)O[C@@H]2O[C@@]3(C)CC[C@H]4[C@H](C)CC[C@@H]1[C@@]24OO3 [Artesunate]
- effect on cancer cell lines (cancer cell lines): cytotoxic effects

Compound: CC1(C)C=C(CN2C/C(=C\c3ccc(F)cc3)C(=O)/C(=C/c3ccc(F)cc3)C2)C(C)(C)N1O [HO-3867]
- anti-cancer activity (cancer cells): better anti-cancer activities than curcumin

Compound: [HH] [hydrogen gas, hydrogen]
- number of total cells, eosinophils, and lymphocytes ([4]; bronchial alveolar lavage fluid, inhalation): significantly reduced
- IL-4 serum level ([4]; following inhalation): significantly decreased
- activity of superoxide dismutase ([4]; inhalation): markedly upregulated
- increased level of malondialdehyde and myeloperoxidase ([4]; inhalation): significantly attenuated
- level of IL-4, IL-13, TNF-α and chemokine (C-X-C motif) ligand 15 ([4]; inhalation): increased the level

Compound: CC[C@H]1OC(=O)[C@H](C)[C@@H](O[C@H]2C[C@@](C)(OC)[C@@H](O)[C@H](C)O2)[C@H](C)[C@@H](O[C@@H]2O[C@H](C)C[C@H](N(C)C)[C@H]2O)[C@](C)(O)C[C@@H](C)/C(=N\OCOCCOC)[C@H](C)[C@@H](O)[C@]1(C)O [Roxithromycin]
- elimination of senescent cells [2]: selectively eliminated large numbers of senescent cells

Compound: Tf-cisplatin complex: transferrin (Tf) conjugated cisplatin
- toxicity in other tissues (tumor): less toxicity in other tissues
- tumor growth inhibition (tumor): inhibited tumor growth in vivo more effectively than free cisplatin

Compound: O=c1c(O)c(-c2ccc(O)c(O)c2)oc2cc(O)cc(O)c12 [Quercetin]
- bioavailability [3]: very low
- solubility in water: poorly soluble in water
